Experiments:
GBM cell lines = assay: Clonogenic survival assays (abstract statement); assay type: cell-based; settings: Homo sapiens
Description: For clonogenic survival assays, exponentially growing cells (70% confluence) were cultured in regular media and treated with vosaroxin, at the appropriate concentrations, or vehicle (final dimethyl sulfoxide concentration of 0.1%) for 48 hours. Tumor cells were then irradiated at room temperature with increasing doses of radiation (0–6 Gy) using an x-ray linear accelerator (dose rate of 200 cGy/min). Nonirradiated controls were handled identically to the irradiated cells with the exception of the radiation exposure. […] Colonies containing more than 50 cells were counted. The plating efficiency was calculated as the number of colonies observed divided by the number of cells plated. The surviving fraction was calculated as the number of colonies formed in the treated dishes compared with the number formed in the control. The survival curves were analyzed using SPSS statistical software (Chicago, IL, USA) by means of a fit of the data by a weighted, stratified, linear regression, according to the linear-quadratic formula: S(D)/S(O) = exp-(αD + βD2). The cell survival enhancement ratio was calculated as the ratio of the mean inactivation dose under control conditions divided by the mean inactivation dose after treatment as previously described.

U251 glioma cell line = assay: Inhibition of proliferation (cell viability); assay type: cell-based; settings: Homo sapiens, U-251
Description: (§1) Cells were seeded at a density of 2 × 10^4 cells/mL in 24-well plates. Cells were […] to attach and grow in 5% fetal bovine serum in DMEM for 24 hours. Cells were treated with different doses of radiation or temozolomide and then maintained in the appropriate culture conditions. At the conclusion of the treatment period, cells were trypsinized and resuspended in 1.0 mL of saline; viable cells were counted using the NucleoCounter^TM NC-100 (Chemotec, […], Denmark). All experiments were conducted in triplicate. IC50 values were calculated using GraFit (Erithacus Software Limited, Staines, UK).

SW1783 glioma cell line = assay: Inhibition of proliferation (cell viability); assay type: cell-based; settings: Homo sapiens
Description: as §1

T98G glioma cell line = assay: Inhibition of proliferation (cell viability); assay type: cell-based; settings: Homo sapiens
Description: as §1

U138 glioma cell line = assay: Inhibition of proliferation (cell viability); assay type: cell-based; settings: Homo sapiens
Description: as §1

caspase-3 = assay: Caspase-3 activity (ELISA); assay type: cell-based, human; settings: addition of vosaroxin (IC20) to RT
Description: After appropriate treatments, tumor cell cultures and tissues were harvested for analysis of cytokine expression. Cell pellets were washed with PBS and lysed with RIPA buffer. Cell lysates and conditioned media were assayed by ELISA to measure (i) active human caspase-3 (CBA045, Merck Chemicals Ltd., Nottingham, UK), (ii) beclin-1 (E98557Hu, USCN Life Sciences, Houston, TX, USA), and (iii) DNA damage (EpiQuik in situ DNA Damage Assay Kit, Epigentek, Farmingdale, NY, USA).

T98G xenografts = assay: Subcutaneous xenograft model: tumor weight and time to progression; assay type: in vivo, female CD1-nu/nu mice; settings: for HR (95% CI) for tumor progression: T98G
Description: Female CD1-nu/nu mice, at 6 weeks of age, were purchased from Charles River (Milan, Italy) under the guidelines established by our institution (University of L’Aquila, Medical School and Science and Technology School Board Regulations, complying with Italian government regulation n.116, January 27, 1992, for the use of laboratory animals). All mice received subcutaneous flank injections (2 each) of 1 × 10^6 U251, U87MG, and T98G cells representing models for MGMT-negative and MGMT-positive cells. Tumor growth was assessed biweekly by measuring tumor diameters with a Vernier caliper (length × width). Tumor weight was calculated according to the formula tumor weight (mg) = tumor volume (mm^3) = d2 × D/2, where d and D are the shortest and longest diameters, respectively. The effects of the treatments were assessed as previously described. At about 10 days after the tumor injection, 30 mice with tumor volumes of 0.5–0.8 cm^3 were randomly divided into 6 groups (5 mice per group with 2 tumors each): (1) control (vehicle); (2) vosaroxin (10 mg/kg every 5 days for 5 weeks intravenous [IV] injection into tail vein; (3) radiotherapy (RT; 4 Gy delivered in a single fraction); (4) vosaroxin in combination with RT; (5) temozolomide (16 mg/kg 5 consecutive days) and (6) temozolomide in combination with RT. Anesthetized tumor-bearing mice received focal irradiation. Irradiation was delivered using an x-ray linear accelerator at a dose rate of 200 cGy/min at room temperature. All mice were shielded with a specially designed lead apparatus to allow irradiation to the right hind limb. At the end of the study (35 days after the start of treatments), animals were sacrificed by carbon dioxide inhalation and tumors were then removed surgically. Half of the tumor was directly frozen in liquid nitrogen for protein analysis and the other half was fixed in paraformaldehyde overnight for immunohistochemical analyses.
The following parameters were used to quantify the antitumor effects of different treatments as previously described: tumor volume, measured throughout the experiment; tumor weight, measured at the end of the experiment; tumor progression, defined as an increase of greater than 50% of tumor volume with respect to baseline; and time to progression (TTP), defined as the time until tumor progression was observed from baseline. Tumor size was measured with calipers and the TTP of a single tumor was calculated. TTP data were used to generate Kaplan-Meier curves for progression. This method of analysis was described previously, and may reduce both inter-subject variability resulting from differences in engraftment efficacy as well as intra-subject variability in response.
In vivo drug combination studies were evaluated using CalcuSyn. For CI calculations of dual administration, the values of % cell kill (%CK) for a fixed tumor volume were determined by the log CK (LCK). LCK was calculated as LCK = (T − C) / (3.32 × Td), where Td represented the mean control group doubling time required to reach a fixed tumor volume, expressed in days. T and C were the mean times in days required to reach the same fixed tumor volume in the treated group and the control group, respectively. CK was calculated as %CK = [1 − (1 − 10LCK)] × 100. Tumor growth delay (TGD) was calculated as %TGD = [(T − C) / C] × 100, where T and C were the same values as those reported by Bruzzese et al..

[1] = test system: luciferase-transfected U251 cells; assay: Orthotopic intra-brain model (DFS, OS)

## CN[C@H]1CN(c2ccc3c(=O)c(C(=O)O)cn(-c4nccs4)c3n2)C[C@@H]1OC [vosaroxin]
GBM cell lines
  IC50: 10 to 100 nM
U251 glioma cell line
  IC20: 15 nM
  IC50: 18.6 ± 2.4 nM
SW1783 glioma cell line
  IC50: 260 ± 9.8 nM
T98G glioma cell line
  IC20: 45 nM
  IC50: 64.5 ± 11 nM
U138 glioma cell line
  IC50: 65.8 ± 14.6 nM
caspase-3
  caspase-3 activity: increased
T98G xenografts; T98G xenografts, day 35, VSR 10 mg/kg q 5 d for 5 wk IV, TMZ 16 mg/kg 5 consecutive days, RT single 4 Gy
  final tumor weight reduction compared with vehicle controls: 60%
T98G xenografts; VSR vs TMZ + RT
  HR (95% CI) for tumor progression: 1.0 (0.4–2.4)
T98G xenografts; VSR vs TMZ
  HR (95% CI) for tumor progression: 0.5 (0.2–1.3)
T98G xenografts; VSR vs VSR + RT
  HR (95% CI) for tumor progression: 4.7 (1.5–14.6)
[1]; VSR vs TMZ + RT
  Disease-free Survival HR (95% CI): 1.2 (0.4–3.2)
  Overall Survival HR (95% CI): 1.5 (0.5–3.0)
[1]; VSR vs VSR + RT
  Disease-free Survival HR (95% CI): 2.4 (1.1–8.8)
  Overall Survival HR (95% CI): 4.5 (2.2–22.5)
[1]; orthotopic U251-luciferase, treated for 35 days starting 5 days after cell injection
  mean time of recurrence (DFS) ± SE: 70.5 ± 7.3 days

— paper PMC5444710, “Enhancement of radiosensitivity by the novel anticancer quinolone derivative vosaroxin in preclinical glioblastoma models” (Oncotarget, 2017)
